The values below come from patent US11297838B2, “Pesticidal compositions and methods” (CORTEVA AGRISCIENCE LLC, priority 2018, dated 2022).

Where two headings read alike, the source gives them in different places.

Test [1] has as its system Beet Armyworm (Spodoptera exigua, LAPHEG). Briefly: Insecticidal test for beet armyworm (BAW), 128-well diet tray assay. Type of test: in vivo. To be noted: 168 h, read-out: BAW rating, % Control (or Mortality). Here is the method: Insecticidal Test for Beet Armyworm (Spodoptera exigua, LAPHEG) (“BAW”)
Bioassays on beet armyworm (BAW; Spodoptera exigua: Lepidoptera) are conducted using a 128-well diet tray assay. One to five second instar BAW larvae are placed in each well (3 mL) of the diet tray that had been previously filled with 1 mL of artificial diet to which 50 μg/cm^2 of the test compound (dissolved in 50 μL of 90:10 acetone-water mixture) had been applied (to each of eight wells) and then allowed to dry. Trays are covered with a clear self-adhesive cover, vented to allow gas exchange, and held at 25° C., 14:10 light-dark for five to seven days. Percent mortality is recorded for the larvae in each well; activity in the eight wells is then averaged. In the reporting of the results, the “BAW & CL Rating Table” was used.

In test [2] the test system is Cabbage Looper (Trichloplusia ni, TRIPNI). As to the kind of experiment: Insecticidal test for cabbage looper (CL), 128-well diet tray assay. The format is in vivo. Conditions: Trichoplusia ni, 168 h, read-out: CL rating, % Control (or Mortality). Here is the method: Insecticidal Test for Cabbage Looper (Trichloplusia ni, TRIPNI) (“CL”)
Bioassays on cabbage looper (CL; Trichloplusia ni: Lepidoptera) are conducted using a 128-well diet tray assay. One to five second instar CL larvae are placed in each well (3 mL) of the diet tray that had been previously filled with 1 mL of artificial diet to which 50 μg/cm^2 of the test compound (dissolved in 50 μL of 90:10 acetone-water mixture) had been applied (to each of eight wells) and then allowed to dry. Trays are covered with a clear self-adhesive cover, vented to allow gas exchange, and held at 25° C., 14:10 light-dark for five to seven days. Percent mortality is recorded for the larvae in each well; activity in the eight wells is then averaged. In the reporting of the results, the “BAW & CL Rating Table” was used.

[3] abbreviates: 50 μg/cm^2 on artificial diet, second instar larvae, five to seven days, 25° C.

As a reminder, the mortality is the percentage killed. Consider `Cc1ccc(C(C)C)c(N2C(=O)CS/C2=N\C(=O)OCCc2ccc(-c3ncn(-c4ccc(OC(F)(F)F)cc4)n3)cc2)c1` [A1, 4-(1-(4-(trifluoromethoxy)phenyl)-1H-1,2,4-triazol-3-yl)phenethyl (Z)-(3-(2-isopropyl-5-methylphenyl)-4-oxothiazolidin-2-ylidene)carbamate], for which the mortality at 50 µg/cm2 in test [1] (setting [3]) and in test [2] (setting [3]) was 50 to 100% in each case.

In the case of `Cc1ccc(C(C)C)c(N2C(=O)CS/C2=N\C(=O)Oc2ccc(-c3ncn(-c4ccc(OC(F)(F)F)cc4)n3)cc2)c1` [A3, 4-(1-(4-(Trifluoromethoxy)phenyl)-1H-1,2,4-triazol-3-yl)phenyl (Z)-(3-(2-isopropyl-5-methylphenyl)-4-oxothiazolidin-2-ylidene)carbamate], the mortality at 50 µg/cm2 in test [1] and in test [2] was 0% each time.

For `Cc1ccc(C(C)C)c(N2C(=O)CS/C2=N\C(=O)OCC(F)(F)c2ccc(-c3ncn(-c4ccc(OC(F)(F)F)cc4)n3)cc2)c1` [A4, 2,2-difluoro-2-(4-(1-(4-(trifluoromethoxy)phenyl)-1H-1,2,4-triazol-3-yl)phenyl)ethyl (Z)-(3-(2-isopropyl-5-methylphenyl)-4-oxothiazolidin-2-ylidene)carbamate], the mortality at 50 µg/cm2 in test [1] (setting [3]) and in test [2] (setting [3]) was 50 to 100% throughout.

In the case of `Cc1ccc(C(C)C)c(N2C(=O)CS/C2=N\C(=O)OCC(F)c2ccc(-c3ncn(-c4ccc(OC(F)(F)F)cc4)n3)cc2)c1` (centres unmarked) [A20, 2-fluoro-2-(4-(1-(4-(trifluoromethoxy)phenyl)-1H-1,2,4-triazol-3-yl)phenyl)ethyl (Z)-(3-(2-isopropyl-5-methylphenyl)-4-oxothiazolidin-2-ylidene)carbamate], the mortality at 50 µg/cm2 in test [1] (setting [3]) and in test [2] (setting [3]) was 50 to 100% in each case.

For `Cc1ccc(OCC(F)(F)F)c(N2C(=O)CS/C2=N\C(=O)OCC(F)c2ccc(-c3ncn(-c4ccc(OC(F)(F)F)cc4)n3)cc2)c1` (centres unmarked) [A21, 2-Fluoro-2-(4-(1-(4-(trifluoromethoxy)phenyl)-1H-1,2,4-triazol-3-yl)phenyl)ethyl (Z)-(3-(5-methyl-2-(2,2,2-trifluoroethoxy)phenyl)-4-oxothiazolidin-2-ylidene)carbamate], the mortality at 50 µg/cm2 in test [1] (setting [3]) and in test [2] (setting [3]) was 50 to 100% throughout.

Turning to `O=C(/N=C1\SCC(=O)N1c1cc(Cl)ccc1OCC(F)(F)F)OCC(F)c1ccc(-c2ncn(-c3ccc(OC(F)(F)F)cc3)n2)cc1` (centres unmarked) [A22, 2-Fluoro-2-(4-(1-(4-(trifluoromethoxy)phenyl)-1H-1,2,4-triazol-3-yl)phenyl)ethyl (Z)-(3-(5-chloro-2-(2,2,2-trifluoroethoxy)phenyl)-4-oxothiazolidin-2-ylidene)carbamate], the mortality at 50 µg/cm2 in test [1] (setting [3]) and in test [2] (setting [3]) was 50 to 100% in each case.

With `CC(C)c1ccc(Cl)cc1N1C(=O)CS/C1=N\C(=O)OCC(F)c1ccc(-c2ncn(-c3ccc(OC(F)(F)F)cc3)n2)cc1` (centres unmarked) [A23, 2-Fluoro-2-(4-(1-(4-(trifluoromethoxy)phenyl)-1H-1,2,4-triazol-3-yl)phenyl)ethyl (Z)-(3-(5-chloro-2-isopropylphenyl)-4-oxothiazolidin-2-ylidene)carbamate], the mortality at 50 µg/cm2 in test [1] (setting [3]) and in test [2] (setting [3]) was 50 to 100% throughout.

Take `CC(C)c1ccccc1N1C(=O)CS/C1=N\C(=O)OCC(F)c1ccc(-c2ncn(-c3ccc(OC(F)(F)C(F)(F)F)cc3)n2)cc1` (centres unmarked) [A24, 2-Fluoro-2-(4-(1-(4-(perfluoroethoxy)phenyl)-1H-1,2,4-triazol-3-yl)phenyl)ethyl (Z)-(3-(2-isopropylphenyl)-4-oxothiazolidin-2-ylidene)carbamate]: the mortality at 50 µg/cm2 in test [1] (setting [3]) and in test [2] (setting [3]) was 50 to 100% each time.

Consider `CC(C)c1ccc(Cl)cc1N1C(=O)CS/C1=N\C(=O)OCC(F)c1ccc(-c2ncn(-c3ccc(OC(F)(F)C(F)(F)F)cc3)n2)cc1` (centres unmarked) [A25, 2-Fluoro-2-(4-(1-(4-(perfluoroethoxy)phenyl)-1H-1,2,4-triazol-3-yl)phenyl)ethyl (Z)-(3-(5-chloro-2-isopropylphenyl)-4-oxothiazolidin-2-ylidene)carbamate], for which the mortality at 50 µg/cm2 in test [1] (setting [3]) is 50 to 100%; in test [2] (setting [3]), 0 to 50%.

Turning to `COCc1ccccc1N1C(=O)CS/C1=N\C(=O)OCCc1ccc(-c2ncn(-c3ccc(OC(F)(F)F)cc3)n2)cc1` [A27, 4-(1-(4-(trifluoromethoxy)phenyl)-1H-1,2,4-triazol-3-yl)phenethyl (Z)-(3-(2-(methoxymethyl)phenyl)-4-oxothiazolidin-2-ylidene)carbamate], the mortality at 50 µg/cm2 in test [1] (setting [3]) and in test [2] (setting [3]) was 50 to 100% throughout.

Take `CCC(C)c1ccc(OC)cc1N1C(=O)CS/C1=N\C(=O)OCCc1ccc(-c2ncn(-c3ccc(OC(F)(F)F)cc3)n2)cc1` (centres unmarked) [A28, 4-(1-(4-(Trifluoromethoxy)phenyl)-1H-1,2,4-triazol-3-yl)phenethyl (Z)-(3-(2-(sec-butyl)-5-methoxyphenyl)-4-oxothiazolidin-2-ylidene)carbamate]: the mortality at 50 µg/cm2 in test [1] (setting [3]) and in test [2] (setting [3]) was 50 to 100% each time.

`O=C(/N=C1\SCC(=O)N1c1cc(Cl)ccc1OC(F)(F)F)OCCc1ccc(-c2ncn(-c3ccc(OC(F)(F)F)cc3)n2)cc1` [A29, 4-(1-(4-(Trifluoromethoxy)phenyl)-1H-1,2,4-triazol-3-yl)phenethyl (Z)-(3-(5-chloro-2-(trifluoromethoxy)phenyl)-4-oxothiazolidin-2-ylidene)carbamate]: the mortality at 50 µg/cm2 in test [1] (setting [3]) and in test [2] (setting [3]) was 50 to 100% throughout.

On to `O=C(/N=C1\SCC(=O)N1c1cc(Cl)ccc1OCC(F)(F)F)OCCc1ccc(-c2ncn(-c3ccc(OC(F)(F)F)cc3)n2)cc1` [A30, 4-(1-(4-(Trifluoromethoxy)phenyl)-1H-1,2,4-triazol-3-yl)phenethyl (Z)-(3-(5-chloro-2-(2,2,2-trifluoroethoxy)phenyl)-4-oxothiazolidin-2-ylidene)carbamate], for which the mortality at 50 µg/cm2 in test [1] (setting [3]) and in test [2] (setting [3]) was 50 to 100% each time.

Regarding `Cc1ccc(OCC(F)(F)F)c(N2C(=O)CS/C2=N\C(=O)OCCc2ccc(-c3ncn(-c4ccc(OC(F)(F)F)cc4)n3)cc2)c1` [A31, 4-(1-(4-(Trifluoromethoxy)phenyl)-1H-1,2,4-triazol-3-yl)phenethyl (Z)-(3-(5-methyl-2-(2,2,2-trifluoroethoxy)phenyl)-4-oxothiazolidin-2-ylidene)carbamate], the mortality at 50 µg/cm2 in test [1] (setting [3]) and in test [2] (setting [3]) was 50 to 100% each time.

As for `CCc1cccc(C)c1N1C(=O)CS/C1=N\C(=O)OCCc1ccc(-c2ncn(-c3ccc(OC(F)(F)F)cc3)n2)cc1` [A32, 4-(1-(4-(Trifluoromethoxy)phenyl)-1H-1,2,4-triazol-3-yl)phenethyl (Z)-(3-(2-ethyl-6-methylphenyl)-4-oxothiazolidin-2-ylidene)carbamate], the values for the mortality at 50 µg/cm2 in test [1] (setting [3]) and in test [2] (setting [3]) were 0% and 50 to 100%, respectively.

Consider `O=C(/N=C1\SCC(=O)N1c1cccc2c1CCCC2)OCCc1ccc(-c2ncn(-c3ccc(OC(F)(F)F)cc3)n2)cc1` [A33, 4-(1-(4-(Trifluoromethoxy)phenyl)-1H-1,2,4-triazol-3-yl)phenethyl (Z)-(4-oxo-3-(5,6,7,8-tetrahydronaphthalen-1-yl)thiazolidin-2-ylidene)carbamate], for which the figures for the mortality at 50 µg/cm2 in test [1] (setting [3]) and in test [2] (setting [3]) were 0% and 50 to 100%, respectively.

Regarding `CC(C)c1ccccc1N1C(=O)CS/C1=N\C(=O)OCC(F)c1ccc(-c2ncn(-c3ccc(OC(F)(F)F)cc3)n2)cc1` (centres unmarked) [A34, 2-Fluoro-2-(4-(1-(4-(trifluoromethoxy)phenyl)-1H-1,2,4-triazol-3-yl)phenyl)ethyl (Z)-(3-(2-isopropylphenyl)-4-oxothiazolidin-2-ylidene)carbamate], the mortality at 50 µg/cm2 in test [1] (setting [3]) and in test [2] (setting [3]) was 50 to 100% in each case.

For the compound `CCC(C)Oc1ccc(C)cc1N1C(=O)CS/C1=N\C(=O)OCCc1ccc(-c2ncn(-c3ccc(OC(F)(F)F)cc3)n2)cc1` (centres unmarked) [A35, 4-(1-(4-(Trifluoromethoxy)phenyl)-1H-1,2,4-triazol-3-yl)phenethyl (Z)-(3-(2-(sec-butoxy)-5-methylphenyl)-4-oxothiazolidin-2-ylidene)carbamate], the mortality at 50 µg/cm2 in test [1] (setting [3]) and in test [2] (setting [3]) was 50 to 100% in each case.

With `O=C(/N=C1\SCC(=O)N1c1cc(Cl)ccc1OC(F)(F)F)OCC(F)c1ccc(-c2ncn(-c3ccc(OC(F)(F)F)cc3)n2)cc1` (centres unmarked) [A36, 2-Fluoro-2-(4-(1-(4-(trifluoromethoxy)phenyl)-1H-1,2,4-triazol-3-yl)phenyl)ethyl (Z)-(3-(5-chloro-2-(trifluoromethoxy)phenyl)-4-oxothiazolidin-2-ylidene)carbamate], the mortality at 50 µg/cm2 in test [1] (setting [3]) and in test [2] (setting [3]) was 50 to 100% throughout.
